Reference: patent US11344635B2, “Compounds for use as iron (III) MRI contrast agents containing anionic pendents and ancillary groups” (The Research Foundation for The State University of New York, priority 2018, dated 2022)

What was measured:
[1] = Benzoate oxidation in the presence of peroxide and ascorbate (ROS assay); conditions: 50 μM complex, 50 μM H2O2, 50 μM ascorbate, pH 7.2
Method: Benzoate oxidation with 50 μM complex, 50 μM H2O2 and 50 μM ascorbate at pH 7.2. [Fe(EDTA)]^− oxidation is set at 100%.
It is desirable that the Fe(III) complex remain in the trivalent oxidation state and not be reduced by peroxide, superoxide, ascorbate or by glutathione at concentrations present in the extracellular medium of cells such as, for example, mammalian cells (e.g., human cells). Normally, a redox potential more negative than zero mV (<0 mV) versus NHE is sufficient. If the complex were to be reduced to Fe(II) and the Fe(II) complex and the complex has a positive redox potential versus NHE, reactive oxygen species may be produced. For example, [Fe(EDTA)]− has a redox potential of approximately 300 mV and produces ROS as shown by the assay in FIG. 7.

[2] = versus NHE; cited from earlier work
[3] = Phantom (in vitro) MR imaging: T1 and T2 relaxivity; format: physicochemical; conditions: for r1 / r1 with HSA: 37° C.
Method: Preparation of Samples for Phantom MR Imaging: Samples for phantom imaging experiments contained 50-500 μM complex, 20 mM HEPES and 100 mM NaCl. For samples containing Human Serum Albumin (HSA), 35 mg of HSA was added to these solutions. The pH of all solutions was adjusted to 7.0.
Phantom (in vitro) imaging at 4.7 T. MRI acquisitions were performed using a General Electric 4.7 T/33 cm horizontal bore magnet (GE NMR instruments, Fremont, Calif.) incorporating AVANCE digital electronics (Bruker BioSpec platform with ParaVision v 3.0.2 acquisition software, Bruker Medical, Billerica, Mass.). […] T1 relaxation rates (r1) were acquired utilizing a saturation recovery, spin-echo (SE) sequence with a fixed echo time (TE), 10 ms and repetition times (TR) ranging from 75 to 8000 ms. Signal intensities at each repetition time were sampled by taking the mean intensity within regions of interest (ROI's) using commercially available image processing software (Analyze 7.0, AnalyzeDirect, Overland, Kans.), and r1 and SMAX were calculated by nonlinear fitting of the equation using Matlab's Curve Fitting Toolbox (Matlab 7.0, MathWorks Inc., Natick, Mass.). The T1 relaxivity for each complex was then determined by obtaining the slope of the compound's molar concentration vs r1 via linear regression fitting of the data. Similarly, T2 relaxation rates (R2) were acquired using a multiecho, Carr-Purcell-Meiboom Gill (CPMG) SE sequence with a fixed TR of 2500 ms and TE times ranging from 15 to 300 ms, NEX) 2. R2 and SMAX were calculated as described above using the equation As before, the T2 relaxivity was determined by obtaining the slope of concentration vs r2 via linear regression fitting of the data.
Relaxivity values for Fe(TASO) with and without HSA measured at 4.7 T and 9.4 T, pH 7.2 and 37° C. compared to Gd(DTPA).

[4] = Log P octanol/water partition coefficient; format: physicochemical
[5] = Effective magnetic moment by Evans method; format: physicochemical; conditions: aqueous solution
Method: Magnetic moments. Samples for studies of magnetic moment by using the Evans method were prepared using a coaxial NMR insert which contained the diamagnetic standard of 5% t-butanol in D2O. The outer 5 mm NMR tube contained 5 mM paramagnetic complex with fixed concentrations; 4 mM, 8 mM, 40 mM, and 70 mM in presence of 5% t-butanol. The effective magnetic moment (μeff, BM) was calculated by using a modified Evans method for small molecules at 298 K (T).

[6] = neutral pH, HEPES buffer, 4.7 Tesla MRI scanner
[7] = with human serum albumin, neutral pH, HEPES buffer, 4.7 Tesla
[8] = 4.7 T, pH 7.2, 37° C., without HSA

## O=C([O-])CN(CCN(CC(=O)[O-])CC(=O)[O-])CC(=O)[O-].[Fe+3] [[Fe(EDTA)]^−]
[1]
  Benzoate oxidation / ROS production (in words): produces ROS
[1]; reference set at 100%
  Benzoate oxidation relative to [Fe(EDTA)]−: 100%
[2]
  redox potential: approximately 300 mV

## O=P([O-])(CN1CCN(CP(=O)([O-])c2ccccc2)CCN(CP(=O)([O-])c2ccccc2)CC1)c1ccccc1.[Fe+3] [Fe(TRAP-Ph)]
[3]; [6]
  r1: 2.9 mM⁻¹ s⁻¹
[3]; [7]
  r1 with HSA: 3.5 mM⁻¹ s⁻¹

## O=P([O-])(O)CN1CCN(CP(=O)([O-])O)CCN(CP(=O)([O-])O)CC1.[Fe+3] [Fe(NOTP)]
[3]; FIG. 11, 4.7 Tesla
  r1: 0.66 ± 0.01 mM⁻¹ s⁻¹
[3]; FIG. 11, with HSA, 4.7 Tesla
  r1 with HSA: 1.04 ± 0.06 mM⁻¹ s⁻¹
[3]; [6]
  r1: 0.66 mM⁻¹ s⁻¹
[3]; [7]
  r1 with HSA: 1.0 mM⁻¹ s⁻¹
[4]
  Log P octanol/water: −2.02±0.30
[5]
  effective magnetic moment μeff: 5.85±0.14 BM

## CNC[C@H](O)[C@@H](O)[C@H](O)[C@H](O)CO.CNC[C@H](O)[C@@H](O)[C@H](O)[C@H](O)CO.O=C([O-])CN(CCN(CC(=O)[O-])CC(=O)O)CCN(CC(=O)[O-])CC(=O)O.[Gd+3] [Gd(DTPA), gadopentetate dimeglumine, reference compound]
[3]; [8]
  r1 4.7 T: 3.1 ± 0.31 mM⁻¹ s⁻¹
  r2 4.7 T: 3.9 ± 0.39 mM⁻¹ s⁻¹
[3]; in HSA, 4.7 T, pH 7.2, 37° C.
  r1 in HSA 4.7 T: 3.2 ± 0.32 mM⁻¹ s⁻¹
  r2 in HSA 4.7 T: 4.0 ± 0.40 mM⁻¹ s⁻¹
